Assay results reported in patent publication EP0392802A2, “Preparation of urea analogues and their use in bronchial, cerebrovascular and neuronal disorders” (Beecham Group p.l.c., priority 1989, dated 1990).

System: guinea pig tracheal spiral preparations
Experiment: Bronchodilation in vitro; guinea pig tracheal spiral preparations (relaxation of resting tension relative to isoprenaline)
Conditions: fall in tension as percentage of total relaxation evoked by 10⁻³M isoprenaline; cumulative dosing 10⁻⁸-2x10⁻⁵M; resting tension 2g; krebs solution at 37°C; read-out: IC₅₀
Procedure: Male guinea pigs (300-600g) were stunned by a blow to the head and bled from the carotid artery. The trachea was exposed, dissected free of connective tissue, and transferred to oxygenated krebs solution at 37 °C. Next, spirals (2 per trachea) were prepared by cutting the whole trachea spirally along its longitudinal axis and then dividing this spiral lengthwise. Each preparation was mounted, using silk thread, in a 10ml organ bath filled with krebs solution at 37 °C and bubbled with 5% CO₂ with O₂. The resting tension of the preparations was set at 2g and changes in muscle tension were monitored isometrically by means of a UFI (2oz) force and displacement transducer (Ormed Ltd) connected to a Linseis pen recorder. All preparations were allowed to equilibrate for 60 minutes. During this equilibration period the preparations were washed by upward displacement at 15 minute intervals and, if necessary, the resting tension was readjusted to 2g using a mechanical micromanipulator system.
Once a steady resting tension had been obtained, the preparations were dosed cumulatively with the test compound (10⁻⁸-2x10⁻⁵M), and finally a maximum relaxation achieved by addition of 10⁻³M isoprenaline.
The fall in tension evoked by the test compound was expressed as a percentage of the total relaxation evoked in the presence of 10⁻³M isoprenaline. […]

Row | SMILES | IC50
1 | CC(NC(=NC#N)Nc1ccc(C#N)cc1)C(C)(C)C (racemic) [Example 4, (±)-N˝-Cyano-N-4-cyanophenyl-N′-1,2,2-trimethylprop-1-ylquanidine] | 3 µM
2 | CC(NC(=S)Nc1ccc(F)cc1)C(C)(C)C (racemic) [Example 3, (±)-N-4-Fluorophenyl-N′-1,2,2-trimethylprop-1-ylthiourea] | 5.9 µM
